Measured values published in patent publication US20250144078A1, “THIOSTREPTON-INSPIRED COMPOUNDS FOR TREATMENT OF CANCER AND PREPARATION THEREOF” (RS Oncology, llc, priority 2022, published 2025).
Counter-ions that a name gives are not always drawn.

How the values were obtained:
HMESO mesothelioma cells = test: Cell viability study (crystal violet) in HMESO mesothelioma cells; assay type: cell-based; conditions: Homo sapiens, 48 h incubation, read-out: IC50 (Concentration of drug required to kill 50% of cells)
Procedure: (§1) FIG. 1: Cell viability assay data in Malignant Mesothelioma (MM) cells (HMESO cell line) treated with compound (1)-HCl or (5)-HCl. N=2 technical and 2 biological replicates conducted by 2 different lab technicians. All compounds went into solution in 100% DMSO. (5)-HCl precipitated at concentrations of ˜20-80 μM when added to complete tissue culture media.
Cell Lines were plated in 96-well plates (Corning, Kennebunk, ME, USA) at a density of 2500 cells per well. The following day, cells were treated with test compounds diluted in complete media followed by incubation for 48 h. Post-incubation cells were washed with PBS (Corning Cellgro, Manassas, VA, USA), fixed with 3.0% formaldehyde (Fisher BioReagents, Fair Lawn, NJ, USA) in PBS, and stained for 30 min with 0.1% crystal violet (Acros Organics, Fair Lawn, NJ, USA) in water. Crystal violet stain was removed, and plates were washed with H2O and allowed to dry. To quantify cell viability, plates were imaged using the Lionheart Plate reader (BioTek Instruments, Winooski, VT, USA) and/or analyzed by absorbance at 540 nm (crystal violet dye dissolved in 100% methanol) using the Synergy HTX plate reader (BioTek Instruments, Winooski, VT, USA). […]

PRX3 = molecular target: T1, PRX3 (Homo sapiens, UniProt P30048); test: PRX3 crosslinking study (western blot) in Malignant Mesothelioma cells; assay type: cell-based; conditions: H-MESO cells treated 24 hours, reducing SDS-PAGE, anti-PRX3 western blot; TS at 2.5 or 5 μM
T1 construct: endogenous in cells; host or cells: H-MESO (HMESO) malignant mesothelioma cell line
T1 sequence (P30048 62-256): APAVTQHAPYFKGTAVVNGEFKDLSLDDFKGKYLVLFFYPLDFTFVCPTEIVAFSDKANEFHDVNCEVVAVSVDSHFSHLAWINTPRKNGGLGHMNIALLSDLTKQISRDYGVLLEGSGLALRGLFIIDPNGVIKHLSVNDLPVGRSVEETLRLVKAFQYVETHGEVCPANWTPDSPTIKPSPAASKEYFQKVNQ
Procedure: Malignant Mesothelioma (MM) cells (H-MESO cell line) were plated into 6-well plates in complete tissue culture media. Cells were allowed to adhere for 24 hours before being treated with indicated concentrations of thiostrepton (TS), (1) or (5) (DMSO Stocks) for 24 hours. Cell lysates were generated using standard RIPA buffer, protein concentrations were determined using a Bradford Assay and 20 μg of total protein per sample were separated by reducing SDS-Polyacrylamide Gel Electrophoresis. Proteins were transferred to a PVDF membrane, blocked with 5% Bovine Serum Albumin (BSA) for 1 hour and incubated with PRX3 primary antibody overnight at 4° C. in 1× Tris Buffered Saline with Tween (TBST). Membranes were washed 3× with 1×TBST and incubated with horseradish peroxidase conjugated (HRP) secondary antibody for 1 hour at room temperature. Membranes were washed 3× in 1×TBST and HRP signal was developed using Enhanced Chemiluminescence and visualized on a GE digital imager.

[1] = Behaviour of compounds in DMSO and in complete tissue culture media; assay type: physicochemical; conditions: from DMSO stock
Procedure: as §1

| SMILES | IC50 (HMESO mesothelioma cells) [µM] | covalent PRX3 crosslinking (PRX3-X-PRX3) (PRX3) | concentrations at which compound precipitated when added to complete tissue culture media [1] [µM] |
| --- | --- | --- | --- |
| C=C(NC(=O)C(=C)NC(=O)c1csc(-c2ccc(N)cc2)n1)C(N)=O [(1)-HCl, N-(3-((3-amino-3-oxoprop-1-en-2-yl)amino)-3-oxoprop-1-en-2-yl)-2-(4-aminophenyl)thiazole-4-carboxamide hydrochloride] | 748 | No PRX3-X-PRX3 crosslinking was observed |  |
| C=C(NC(=O)c1csc(-c2ccc(N)cc2)n1)C(=O)NC(=C)C(=O)OC [(5)-HCl, Methyl 2-(2-(2-(4-aminophenyl)thiazole-4-carboxamido)acrylamido)acrylate hydrochloride] |  | Similar, yet less robust, results | 20 to 80 |
| C=C(NC(=O)C(=C)NC(=O)c1csc(C2=N[C@@H]3c4csc(n4)[C@H]4NC(=O)c5csc(n5)[C@H]([C@](C)(O)[C@@H](C)O)NC(=O)[C@H]5CSC(=N5)/C(=C/C)NC(=O)[C@H]([C@@H](C)O)NC(=O)c5csc(n5)[C@]3(CC2)NC(=O)[C@H](C)NC(=O)C(=C)NC(=O)[C@H](C)NC(=O)[C@H]([C@@H](C)CC)N[C@@H]2C=Cc3c([C@H](C)O)cc(nc3[C@H]2O)C(=O)O[C@@H]4C)n1)C(N)=O [TS, thiostrepton] | 1.01 | resulted in covalent PRX3 crosslinking |  |
